# Laboratory results published in patent US10323283B2, “Editing profiling of PDE8A pre-mRNA: use as specific biomarker of ADARs activities in human tissues to diagnose and to predict and assess therapeutic efficacy and/or efficiency or potential drug side effects” (ALCEDIAG, priority 2010, dated 2019).
# Assays:
# Assay type in all cases: cell-based, human
# [1] = test system: PDE8A4 isoform of the protein; test: Western blot analysis of PDE8A protein concentrations in SH-SY5Y cells after IFNα; conditions: IFNα application during 24 hours
# Method: (§1) The SH-SY5Y Human neuroblastoma cell line was purchased from ECACC (ref 94030304, lot number 06H021). Cells were cultured in high glucose D-MEM medium (Sigma, ref D6546) supplemented with 10% dialysed FCS (PAA, ref A15-507, lot number A50708-0050), 2 mM Glutamine (Sigma, G7513) and a 1× mix of Antibiotic-Antimycotic Stabilized (Sigma, ref A5955) at 37° C. under a humidified atmosphere of 5% CO2. The day preceding hIFNα treatment, SH-SY5Y cells were plated in 8 different 6-well plates at a density of 7.10^5 cells/well. […]
# After culture medium elimination, SH-SY5Y cells were washed two times with a phosphate buffer solution (PBS, Gibco Invitrogen Corporation), scraped and solubilized for 2 hr at 4° C. in solubilization buffer containing 150 mM NaCl, 5 mM EDTA, 1% Triton X-100, 0.1% sodium deoxycholate, 10 mM Tris-HCl [pH 8.0] and supplemented with protease inhibitors (1 mM phenylmethylsulfonyl fluoride, and one tablet of Complete™ mini protease inhibitors cocktail [Roche]). […] Proteins present in the supernatant (clear lysate) were quantified with a Qubit Fluorometer (Invitrogen, Q32857) and the Quant-IT Protein assay (Invitrogen, ref Q33211). […]
# ADAR1a-p150 = test: Quantification of ADAR1a-p150 mRNA expression by real-time PCR in SH-SY5Y cells; conditions: IFNα application during 24 hours
# Method: as §1
# In order to quantify levels of ADAR1a mRNA expression in SH-SY5Y cells first-strand cDNA was synthesized by reverse transcription (as described above) and subjected to TaqMan quantitative Real-Time PCR analysis (Applied Biosystems,). The probe and primers used for the quantitative PCRs were from Applied Biosystems (Gene Expression Assays, Assay-On-Demand): • -ADAR1a: ref Hs 01020780_ml
# Human GAPDH (product no. 4326317E; Applied Biosystems) was included in each multiplex PCR as an internal control. […] Quantitation of target gene expression in all samples was normalized to GAPDH expression by the equation Ct (target)−Ct (GAPDH)=ΔCt, where Ct is the threshold cycle number. The mean ΔCt value of samples from untreated cells was determined and used as a reference point for the samples corresponding to IFNα treated cells. […]
# PDE8A pre-mRNA = PDE8A pre-mRNA editing profile by nested RT-PCR and CE-SSCP in SH-SY5Y cells; conditions: increased concentrations of IFNα, 48 hours
# Method: The SH-SY5Y Human neuroblastoma cell line was purchased from ECACC (ref 94030304, lot number 06H021). Cells were cultured in high glucose D-MEM medium (Sigma, ref D6546) supplemented with 10% dialysed FCS (PAA, ref A15-507, lot number A50708-0050), 2 mM Glutamine (Sigma, G7513) and a 1× mix of Antibiotic-Antimycotic Stabilized (Sigma, ref A5955) at 37° C. under a humidified atmosphere of 5% CO2. The day preceding hIFNα treatment, SH-SY5Y cells were plated in 8 different 6-well plates at a density of 7.10^5 cells/well. On the next day, culture medium was removed and cells were incubated for 48 hours with hIFNα at the correct concentration (PBL biomedical laboratories, ref 111001-1, lot number 3734). On the day of the experiment, the hIFNα stock solution (10^5 I.U/ml in sterile 1×D-PBS stocked at −80° C.) was thawed on ice and then extemporaneously diluted in D-MEM supplemented with FCS and Antibiotic-Antimycotic, at the final concentrations of […]. In each well, cells were treated with 2 ml of the working solution. Aliquots of the stock-solution were used only once. […]
# Human total blood RNA was extracted with the PAXgene Blood RNA kit 50 (PreAnalytiX, ref 762174) according to manufacturer's instructions. […] Aliquots (5 μl) of the amplification products were used to check the quantity and the quality of amplicons on a 2% agarose analytic gel. […]
substance,measurement,setting,value
interferon alpha [IFNα],"maximal effect on PDE8A4 isoform, % of the steady state concentration found in controls",[1]; from best fit,−47%
same,estimated EC 50% of the effect on PDE8A4 isoform concentration versus concentrations of IFNα,"[1]; western blot, ±SD, R^2 of the fit=0.7",3.3±4.4 IU/ml
same,RQ versus GAPDH of the ADAR1a-p150,ADAR1a-p150,induced
same,proportions of isoform B in the editing profile of PDE8A RNA,PDE8A pre-mRNA,relative increase
